In US6683103B2, “Sulfonamides for treatment of endothelin-mediated disorders” (Texas Biotechnology Corporation, priority 1997, dated 2004):
Where two headings read alike, the source gives them in different places.

Assays:
[1] = target: T1, human ETB receptor (Homo sapiens, UniProt P24530); assay: Binding Test #2: inhibition of 125I-ET-1 binding to ETB receptors (transfected COS7 cell membranes)
T1 construct: expressed in transfected cells; host or cells: COS7 cells
T1 sequence (P24530 27-442): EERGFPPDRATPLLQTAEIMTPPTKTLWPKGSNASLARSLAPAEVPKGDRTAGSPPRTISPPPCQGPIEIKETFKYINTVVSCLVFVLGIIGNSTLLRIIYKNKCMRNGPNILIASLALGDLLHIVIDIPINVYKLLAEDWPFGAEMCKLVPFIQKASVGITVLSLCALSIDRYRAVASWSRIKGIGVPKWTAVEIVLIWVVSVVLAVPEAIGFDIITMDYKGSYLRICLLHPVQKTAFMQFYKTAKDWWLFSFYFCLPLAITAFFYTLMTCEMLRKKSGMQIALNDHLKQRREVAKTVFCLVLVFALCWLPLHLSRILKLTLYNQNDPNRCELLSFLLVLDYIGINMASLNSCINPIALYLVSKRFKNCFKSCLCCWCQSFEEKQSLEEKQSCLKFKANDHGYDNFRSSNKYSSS
Method in brief: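 Competition with 125I-ET-1 for binding to membranes from COS7 cells transfected with human ETB receptor, used at 1 μg/50 μl binding buffer. Membranes prepared in HEPES pH 7.4 with aprotinin, including a DNase/MnCl2 step at 37 °C for 30 min.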

[2] = target: T2, human ETA receptors (Homo sapiens, UniProt P25101); assay: Binding Test #1: inhibition of 125I-ET-1 binding to ETA receptors (TE 671 cell membranes); details: read-out: ETA
T2 construct: endogenous in cells; host or cells: TE 671 cells (ATCC HTB 139)
T2 sequence (P25101 21-427): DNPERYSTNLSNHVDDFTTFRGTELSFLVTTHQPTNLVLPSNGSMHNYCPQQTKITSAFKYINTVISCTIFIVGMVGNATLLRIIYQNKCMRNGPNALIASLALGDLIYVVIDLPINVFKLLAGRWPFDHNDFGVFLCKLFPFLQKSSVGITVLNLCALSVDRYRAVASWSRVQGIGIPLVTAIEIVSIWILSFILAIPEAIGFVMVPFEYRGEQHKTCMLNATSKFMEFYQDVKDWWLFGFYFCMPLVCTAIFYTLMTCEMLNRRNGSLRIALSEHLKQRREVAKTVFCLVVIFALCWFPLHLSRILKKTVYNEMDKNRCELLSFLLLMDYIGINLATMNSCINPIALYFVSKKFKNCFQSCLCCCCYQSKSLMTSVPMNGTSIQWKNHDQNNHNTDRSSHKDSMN
Method in brief: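 Radioligand competition in triplicate: ¹²⁵I-endothelin-1 displaced by test compound (1 nM–100 μM final) from ETA-bearing TE 671 cell membranes in HEPES pH 7.4 binding buffer with NaCl, MgCl2 and bacitracin. Incubation 16–18 h at 4 °C (or at 24 °C); 80 nM ET-1 defines nonspecific binding; pellet radioactivity gives percent inhibition.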

[3] = Table 1, † incubation at 24° C., read-out: ETB
[4] = Table 1, † incubation at 24° C.
[5] = Table 1, incubation at 4° C., read-out: ETB
[6] = Table 2, incubation at 4° C., read-out: ETB
[7] = Table 2, † incubation at 24° C., read-out: ETB
[8] = Table 2, † incubation at 24° C.

| Compound | IC50 [1, 3] [µM] | IC50 [2, 4] [µM] | IC50 [1, 5] [µM] | IC50 ([2]; Table 1, incubation at 4° C.) [µM] | further results |
| --- | --- | --- | --- | --- | --- |
| Cc1ccc(NC(=O)c2ccc(S(=O)(=O)Nc3onc(C)c3Br)s2)cc1 [N-(4-bromo-3-methyl-5-isoxazolyl)-5-(4-tolyl)aminocarbonyl)thiophene-2-sulfonamide] | 8.6 | 28 |  |  |  |
| Cc1noc(NS(=O)(=O)c2ccc(-c3ccc(C(C)C)cc3)s2)c1Br [N-(4-bromo-3-methyl-5-isoxazolyl)-5-(4′-isopropylphenyl))thiophene-2-sulfonamide] |  |  | 0.3 | 1.6 |  |
| CCCc1ccc(-c2ccc(S(=O)(=O)Nc3onc(C)c3Br)s2)cc1 [N-(4-bromo-3-methyl-5-isoxazolyl)-5-(4′-propylphenyl))thiophene-2-sulfonamide] |  |  | 0.51 | 5.6 |  |
| CCc1ccc(-c2ccc(S(=O)(=O)Nc3onc(C)c3Br)s2)s1 [N-(4-bromo-3-methyl-5-isoxazolyl)-5-(5-ethylthien-2-yl)thiophene-2-sulfonamide] | 7.7 | 24 |  |  |  |
| Cc1noc(NS(=O)(=O)c2ccc(Sc3ccccc3)o2)c1Br [N-(4-bromo-3-methyl-5-isoxazolyl)-5-(phenthio)furan-2-sulfonamide] |  |  | 7 | 5 |  |
| Cc1noc(NS(=O)(=O)c2ccc(-c3cc(C(F)(F)F)cc(C(F)(F)F)c3)s2)c1Br [N-(4-bromo-3-methyl-5-isoxazolyl)-5-[3,5-bis(triflouromethyl)phenyl]thiophene-2-sulfonamide] | 15.5 | 5.9 | 12 | 0.794 |  |
| Cc1noc(NS(=O)(=O)c2ccc(-c3ccc(C(F)(F)F)cc3)s2)c1Br [N-(4-bromo-3-methyl-5-isoxazolyl)-5-[4-(trifluoromethyl)phenyl]thiophene-2-sulfonamide] | 0.282 | 6.31 | 0.0835 | 6.39 |  |
| Cc1noc(NS(=O)(=O)c2ccc(Br)s2)c1Br [N-(4-bromo-3-methyl-5-isoxazolyl)-5-bromothiophene-2-sulfonamide] |  |  | 2.26 | 0.314 |  |
| Cc1noc(NS(=O)(=O)c2ccc(-c3ccccc3)o2)c1Br [N-(4-bromo-3-methyl-5-isoxazolyl)-5-phenylfuran-2-sulfonamide] |  |  | 2.43 | 0.857 |  |
| Cc1noc(NS(=O)(=O)c2ccc(-c3ccccc3)s2)c1Br [N-(4-bromo-3-methyl-5-isoxazolyl)-5-phenylthiophene-2-sulfonamide] | 2.4 | 36.6 | 0.417 | 3.53 |  |
| Cc1noc(NS(=O)(=O)c2ccco2)c1Br [N-(4-bromo-3-methyl-5-isoxazolyl)furan-2-sulfonamide] |  |  | 88.1 | 0.75 |  |
| Cc1noc(NS(=O)(=O)c2ccsc2)c1Br [N-(4-bromo-3-methyl-5-isoxazolyl)thiophene-3-sulfonamide] |  |  | 23.4 | 0.135 |  |
| Cc1onc(NS(=O)(=O)c2ccc(-c3ccccc3)cc2)c1Br [N-(4-bromo-5-methyl-3-isoxazolyl)-4-biphenylsulfonamide] |  |  |  |  | IC50 [1, 6]: 0.29 ± 0.02 µM; IC50 [1, 7]: 1.78 µM; IC50 ([2]; Table 2, incubation at 4° C.): 6.4 ± 2 µM; IC50 [2, 8]: 49 µM |
| Cc1onc(NS(=O)(=O)c2cccs2)c1Br [N-(4-bromo-5-methyl-3-isoxazolyl)thiophene-2-sulfonamide] |  |  | 27.3 | 0.211 |  |
| Cc1cc(C)c(NC(=O)c2sccc2S(=O)(=O)Nc2onc(C)c2Cl)c(C)c1 [N-(4-chloro-3-methyl-5-isoxazolyl)-2-(2,4,6-trimethylphenylaminocarbonyl)thiophene-3-sulfonamide] | 8.27 | 0.000626 |  |  |  |
| Cc1ccc(CC(=O)c2sccc2S(=O)(=O)Nc2onc(C)c2Cl)c(C)c1 [N-(4-chloro-3-methyl-5-isoxazolyl)-2-(2,4-dimethylphenylacetyl)thiophene-3-sulfonamide] | 4.8 | 0.0004 |  |  |  |
| CC(=O)OCc1c(C)cc(C)c(NC(=O)c2sccc2S(=O)(=O)Nc2onc(C)c2Cl)c1C [N-(4-chloro-3-methyl-5-isoxazolyl)-2-(3-acetoxymethyl-2,4,6-trimethylphenylaminocarbonyl)thiophene-3-sulfonamide] | > 100 | 0.0006 |  |  |  |
| Cc1noc(NS(=O)(=O)c2ccccc2-c2ccccc2)c1Cl [N-(4-chloro-3-methyl-5-isoxazolyl)-2-biphenylsulfonamide] |  |  |  |  | IC50 [1, 6]: ~14 µM; IC50 ([2]; Table 2, incubation at 4° C.): 0.00123 µM |
| Cc1noc(NS(=O)(=O)c2cccc(-c3ccccc3)c2)c1Cl [N-(4-chloro-3-methyl-5-isoxazolyl)-3-biphenylsulfonamide] |  |  |  |  | IC50 [1, 6]: 0.793 µM; IC50 ([1]; read-out: IC50 for ETB receptors): ~0.793 µM; IC50 ([2]; Table 2, incubation at 4° C.): > 0.03 µM |
| Cc1noc(NS(=O)(=O)c2ccc(-c3ccccc3)cc2)c1Cl [N-(4-chloro-3-methyl-5-isoxazolyl)-4-biphenylsulfonamide] |  |  |  |  | IC50 [1, 6]: 0.29 ± 0.1 µM; IC50 ([2]; Table 2, incubation at 4° C.): 4.93 ± 3 µM |
| Cc1onc(NS(=O)(=O)c2ccc(-c3ccccc3)cc2)c1Cl [N-(4-chloro-5-methyl-3-isoxazolyl)-4-biphenylsulfonamide] |  |  |  |  | IC50 [1, 6]: 0.23 ± 0.01 µM; IC50 [1, 7]: 1.29 µM; IC50 ([2]; Table 2, incubation at 4° C.): 3.7 µM; IC50 [2, 8]: 18.6 µM |
| N-2-[3,4-(methylenedioxy)phenylacetyl]thiophene-3-sulfonamide | 32.5 | 1.8 |  |  |  |

Now from value to compound, other results behind:

| IC50 [1, 3] [µM] | IC50 [2, 4] [µM] | IC50 [1, 5] [µM] | IC50 ([2]; Table 1, incubation at 4° C.) [µM] | Compound | further results |
| --- | --- | --- | --- | --- | --- |
| 61 | 0.011 |  |  | COc1cc(NC(=O)c2sccc2S(=O)(=O)Nc2onc(C)c2Cl)c(C(N)=O)cc1OC [N-(4-chloro-3-methyl-5-isoxazolyl)-2-(2-carboxamido-4,5-dimethoxyphenylaminocarbonyl)thiophene-3-sulfonamide] |  |
| > 100 | 0.0015 |  |  | Cc1cc(C)c(NC(=O)c2sccc2S(=O)(=O)Nc2onc(C)c2Cl)c(C)c1CC(=O)O [N-(4-chloro-3-methyl-5-isoxazolyl)-2-(3-carboxymethyl-2,4,6-trimethylphenylaminocarbonyl)thiophene-3-sulfonamide] |  |
| 6.2 | 0.23 |  |  | Cc1noc(NS(=O)(=O)c2ccsc2C(=O)OCCc2ccc3c(c2)OCO3)c1Cl [N-(4-chloro-3-methyl-5-isoxazolyl)-2-[2-(3,4-methylenedioxyphenyl)ethoxycarbonyl-3-sulfonamide] |  |
| 12.5 | 0.000169 |  |  | COc1cc(C#N)c(NC(=O)c2sccc2S(=O)(=O)Nc2onc(C)c2Cl)c(OC)c1OC [N-(4-chloro-3-methyl-5-isoxazolyl)-2-[(2,3,4-trimethoxy-6-cyano)phenylaminocarbonyl]thiophene-3-sulfonamide] |  |
| 14.7 | 31.3 |  |  | Cc1ccc(NC(=O)c2c(S(=O)(=O)Nc3onc(C)c3Cl)c3ccccc3n2C)cc1 [N-(4-chloro-3-methyl-5-isoxazolyl)-2-[(4-tolyl)aminocarbonyl]-1-methylindole-3-sulfonamide] |  |
| 2.09 | 0.128 |  |  | Cc1noc(NS(=O)(=O)c2ccsc2CC2(c3ccc4c(c3)OCO4)OCCO2)c1Cl [N-(4-chloro-3-methyl-5-isoxazolyl)-2-[β,β-(ethylenedioxy)-3,4-(methylenedioxy)phenethyl]thiophene-3-sulfonamide] |  |
| 0.71 | 12 |  |  | CCc1ccc(-c2ccc(S(=O)(=O)Nc3onc(C)c3Cl)s2)s1 [N-(4-chloro-3-methyl-5-isoxazolyl)-5-(5-ethylthien-2-yl)thiophene-2-sulfonamide] |  |
| 2.39 | ~2 |  |  | COc1ccc2c(S(=O)(=O)Nc3onc(C)c3Cl)c(Cc3ccc4c(c3)OCO4)sc2c1 [N-(4-chloro-3-methyl-5-isoxazolyl)-6-methoxy-2-[3,4-(methylenedioxy)benzyl]benzo[b]thiophene-3-sulfonamide] |  |
| 34 | 0.44 |  |  | Cc1noc(NS(=O)(=O)c2ccsc2C(=O)OC2CCCCC2)c1Cl [N-(4-chloro-3-methyl-5-isoxozolyl-2-(cyclohexyloxycarbonyl)thiophene-3-sulfonamide] |  |
| 0.364 | 0.0055 |  |  | Cc1onc(NS(=O)(=O)c2c(Cc3ccc4c(c3)OCO4)sc3ccccc23)c1Cl [N-(4-chloro-5-methyl-3-isoxazolyl)-2-[3,4-(methylenedioxy)benzyl]benzo[b]thiophene-3-sulfonamide] |  |
